# Laboratory results published in the NIST ThermoML archive (doi:10.1021/je400544h).
# ± gives the expanded uncertainty stated by the source.
# Conditions: Liquid, Ebulliometric method (Recirculating still)
compound,measurement,setting,value
CC(C)=O [acetone],vapor or sublimation pressure,329.37 K,101.3 ± 1.8 kPa
CCO [ethanol],vapor or sublimation pressure,351.45 K,101.3 ± 1.8 kPa
"FC(F)(F)C(Cl)(Cl)Cl [1,1,1-trichloro-2,2,2-trifluoroethane]",vapor or sublimation pressure,319.15 K,101.3 ± 2 kPa
O=S(=O)(Cl)Cl [sulfuryl chloride],vapor or sublimation pressure,342.6 K,101.3 ± 2 kPa
